In paper PMC8406801, “Naringenin Inhibits Platelet Activation and Arterial Thrombosis Through Inhibition of Phosphoinositide 3-Kinase and Cyclic Nucleotide Signaling” (Frontiers in Pharmacology, 2021):
“And” between values parts separate entries of the source, which are not always exact repeats. Equal values may be shown once. Where a name gives a salt, the structure may show the parent alone.

Legend:
[1] = system: VASP Ser239 phosphorylation; assay: Immunoblotting of phospho-VASP (Ser239) in ADP-stimulated washed platelets, with or without PKA, PKG, PKC inhibitors; format: cell-based, rat; conditions: ADP 10 μmol/L
Protocol: For in vitro platelet aggregation, aliquots of washed platelets were preincubated with vehicle or various concentrations of naringenin for 5 min and stimulated with ADP (10 μmol/L) under stirring at 37°C for 5 min. For ex vivo platelet aggregation, PRP was incubated at 37°C for 5 min and stimulated with ADP (5 μmol/L) under stirring at 37 °C. The platelet aggregation was terminated by adding ethylenediaminetetraacetic acid (EDTA; 10 mM). Total protein was prepared using RIPA lysis buffer and protein content was determined by bicinchoninic acid (BCA) protein assay kit. Equal amounts of platelet proteins (30 μg) were separated on 10% SDS polyacrylamide gel electrophoresis (SDS-PAGE) and then transferred to poly vinylidene difluoride (PVDF) membranes and subjected to western blot. Blots were blocked with TBS-Tween 20 containing 5% BSA and probed with primary antibodies diluted in blocking solution at 4°C overnight followed by incubation with the corresponding HRP secondary antibodies. The protein bands were visualized using enhanced chemiluminescence (ECL).
VASP is a substrate for cAMP- and cGMP- dependent protein kinases, which mediate cAMP- and cGMP-dependent inhibitory signaling in platelets, respectively. Increased cAMP levels followed by the activation of cAMP-dependent protein kinase A (PKA) phosphorylates VASP at position Ser157, whereas the elevation of cGMP leads to VASP phosphorylation at position Ser239 by cGMP-dependent protein kinase G (PKG) ([Aszódi et al., 1999]; [Li et al., 2003a]). To further examine whether naringenin modulates cAMP- or cGMP-mediated inhibitory signaling, the phosphorylation of VASP (Ser157 and Ser239) in washed platelets on stimulation with ADP were measured in the absence or presence of naringenin (100, 200, 400, and 800 μM). […] To further confirm the antiplatelet effects of naringenin through PKA-dependent signaling, the effects of naringenin on platelet aggregation were measured in the presence of PKG inhibitor (Rp-8-Br-PET-cGMPS) and PKA inhibitor (H89).
FIGURE 7 Naringenin promotes VASP phosphorylation. The effects of naringenin on phosphorylation of VASP (at positions Ser 157 and Ser239) were measured in washed platelets upon stimulation with ADP (10 μmol/L) by western blotting (A). The blots shown are representative of three separate experiments. The phosphorylation levels were quantified by ImageJ 1.47v software. The level of phosphorylation obtained with vehicle control (0 μM) was taken as 1 (B,C). R represents the phosphorylation level in resting platelets. Data are expressed as means ± SD (n = 3). *p < 0.05, ***p < 0.001 compared with the vehicle control group. VASP phosphorylation at Ser239 was also analyzed in washed platelets incubated with 5 μmol/L PKA (H89), 30 μmol/L PKG (Rp-8-Br-PET-cGMPS), or 5 μmol/L PKC (GF109203X) inhibitors before treatment with naringenin (D). Washed platelets were incubated with vehicle or naringenin (200 μmol/L) at 37°C in the presence or absence of 5 μmol/L PKA (H89) or 30 μmol/L PKG (Rp-8-Br-PET-cGMPS) inhibitors. After treatment, platelets were stimulated with ADP (10 μmol/L) to trigger aggregation (E). Data are expressed as means ± SD (n = 6). ***p < 0.001 compared with the ADP-treated group, ^# p < 0.05, ^### p < 0.001 compared with naringenin alone or H89 alone.

[2] = system: washed rat platelets; assay: ADP (10 μM)-induced aggregation of washed rat platelets; format: cell-based; conditions: for platelet aggregation when incubated with naringenin after kinase inhibitor: naringenin 200 μmol/L; for Aggregation (%): raw data
Protocol: Platelet-rich plasma (PRP) was obtained, and after the addition of 100 ng/ml PGE1, platelets were pelleted at 900 × g for 10 min. […] Washed platelets were preincubated with vehicle (0.4% dimethyl sulfoxide) or various concentrations of naringenin in the presence of 2 mM CaCl2 for 5 min at 37°C, and then further stimulated by ADP (10 μM), thrombin (0.2 U/mL) or collagen (2 μg/ml). The maximum platelet aggregation rate was detected within 5 min with continuous stirring.
Platelet aggregation was induced by ADP using washed platelets and PRP. Washed platelets were preincubated with vehicle (containing 0.4% DMSO) or different doses (100, 200, 400, and 800 μM) of naringenin or naringin for 5 min before activation with ADP (10 μM) for 5 min.
(§1) FIGURE 1 Effects of naringenin and naringin on platelet aggregation. Chemical structure of naringin (A) and naringenin (B). The effects of naringin (C) or naringenin (D) on PRP were measured following stimulation with 10 μmol/L ADP. Rat washed platelet aggregation performed with or without different concentrations of naringin (E) or naringenin (F) was recorded after stimulation with 10 μmol/L ADP. Similarly, Washed platelet aggregation performed with vehicle or various concentrations of naringenin was recorded after stimulation with 0.2 U/mL thrombin (G) or 2 μg/ml collagen (H). WP represents washed platelets. Data are expressed as means ± SD (n = 6), the level of aggregation obtained at 5 min with vehicle-treated samples (0 μM) was taken as 100%. *p < 0.05, **p < 0.01, ***p < 0.001 compared with the vehicle control group.

[3] = system: washed rat platelets; assay: as above; format: cell-based; conditions: Figure 7E
[4] = system: PRP (platelet-rich plasma); assay: ADP (10 μmol/L)-induced aggregation of PRP in vitro; format: cell-based, rat; conditions: PRP, ADP 10 μmol/L, single replicates; for Aggregation (%): raw data
Protocol: Washed rat platelets were prepared as described previously ([Gao et al., 2011]) with a minor modification. Briefly, rat blood was drawn from the abdominal aorta into the siliconized vacutainers containing 1:9 (v/v) 3.8% sodium citrate, supplemented with 100 ng/ml prostaglandin E1 (PGE1) and centrifuged at 300 × g for 6 min at room temperature. Platelet-rich plasma (PRP) was obtained, and after the addition of 100 ng/ml PGE1, platelets were pelleted at 900 × g for 10 min. Platelets were washed once in Tyrode’s buffer (12 mM NaHCO3, 138 mM NaCl, 5.5 mM glucose, 2.9 mM KCl, 2 mM MgCl2, 0.42 mM NaH2PO4, 10 mM HEPES, pH 7.4) containing 100 ng/ml PGE1, and finally resuspended in Tyrode’s buffer containing 0.02 U/mL apyrase to a final concentration of 4×10^8 cells/mL. Washed platelets were preincubated with vehicle (0.4% dimethyl sulfoxide) or various concentrations of naringenin in the presence of 2 mM CaCl2 for 5 min at 37°C, and then further stimulated by ADP (10 μM), thrombin (0.2 U/mL) or collagen (2 μg/ml). The maximum platelet aggregation rate was detected within 5 min with continuous stirring.
Platelet aggregation was induced by ADP using washed platelets and PRP. Washed platelets were preincubated with vehicle (containing 0.4% DMSO) or different doses (100, 200, 400, and 800 μM) of naringenin or naringin for 5 min before activation with ADP (10 μM) for 5 min. […] For example, naringenin, at doses of 100 and 800 μM, decreased ADP-induced platelet aggregation to 54.5 ± 6.2% and 6.3 ± 1.7%, respectively (n = 6; p < 0.001, control group platelet aggregation was taken as 100%) (Figure 1F). […] Because dietary flavonoids have been reported to bind plasma proteins and cause the lowering of inhibitory potency in PRP ([Wright et al., 2013]), the ability of naringenin and naringin on platelet function in PRP was investigated to compare their effects with washed platelets.
as §1

[5] = inhibitor 5 μmol/L before treatment with naringenin

CN(C)CCCn1cc(C2=C(c3c[nH]c4ccccc34)C(=O)NC2=O)c2ccccc21 [GF109203X, reference compound]
naringenin-induced phosphorylation of VASP at Ser239 after kinase inhibitor [1, 5]: only small changes

O=S(=O)(NCCNCC=Cc1ccc(Br)cc1)c1cccc2cnccc12 [H89, N-[2-(p-bromocinnamylamino)ethyl]-5-isoquinolinesulfonamide]
level of platelet aggregation, inhibitor alone ([2]; ADP 10 μmol/L, inhibitor 5 μmol/L, without naringenin): did not affect the level of platelet aggregation
platelet aggregation when incubated with naringenin after kinase inhibitor ([2]; inhibitor 5 μmol/L pre-treatment, ADP 10 μmol/L): significantly restored platelet aggregation levels
naringenin-induced phosphorylation of VASP at Ser239 after kinase inhibitor [1, 5]: inhibited the increase in phosphorylation of VASP at Ser239
Aggregation (%) ([3]; H89 (5 μM)+ADP (10 μM)): 62.7% and 67.1% and 68.1% and 68.8% and 64.1% and 69.2%

C[C@@H]1O[C@@H](O[C@H]2[C@H](Oc3cc(O)c4c(c3)O[C@H](c3ccc(O)cc3)CC4=O)O[C@H](CO)[C@@H](O)[C@@H]2O)[C@H](O)[C@H](O)[C@H]1O [Naringin, naringin, reference compound]
activity at 200 µM ([2]; Rattus norvegicus, Platelet, washed platelets, ADP 10 μmol/L, compound 200 μM, single replicates, read-out: Aggregation % of control): 72.6%
activity at 400 µM ([2]; Rattus norvegicus, Platelet, washed platelets, ADP 10 μmol/L, compound 400 μM, single replicates, read-out: Aggregation % of control): 79.8%
ADP-induced platelet aggregation (control group taken as 100%) ([2]; washed platelets, ADP 10 μM, compound 800 μM, mean ± SD, n = 6): 70.8 ± 7.1%
Aggregation (%) ([2]; washed platelets, ADP 10 μmol/L, compound 100 μM, single replicates): 66.8% and 55.6% and 57.3% and 61.8% and 52.0% and 65.0%
Aggregation % of control ([2]; washed platelets, ADP 10 μmol/L, compound 100 μM, single replicates, 100 µM): 94.6 % of control and 78.7 % of control and 81.1 % of control and 87.5 % of control and 73.6 % of control and 92.0 % of control
Aggregation (%) ([2]; washed platelets, ADP 10 μmol/L, compound 200 μM, single replicates): 51.3% and 57.7% and 55.0% and 59.4% and 50.0% and 54.0%
Aggregation % of control ([2]; washed platelets, ADP 10 μmol/L, compound 200 μM, single replicates, 200 µM): 81.7 % of control and 77.8 % of control and 84.1 % of control and 70.8 % of control and 76.4 % of control
Aggregation (%) ([2]; washed platelets, ADP 10 μmol/L, compound 400 μM, single replicates): 56.4% and 55.5% and 55.4% and 51.0% and 52.3% and 46.6%
Aggregation % of control ([2]; washed platelets, ADP 10 μmol/L, compound 400 μM, single replicates, 400 µM): 78.6 % of control and 78.4 % of control and 72.2 % of control and 74.0 % of control and 66.0 % of control
Aggregation (%) ([2]; washed platelets, ADP 10 μmol/L, compound 800 μM, single replicates): 58.1% and 48.7% and 49.2% and 43.6% and 47.5% and 53.0%
Aggregation % of control ([2]; washed platelets, ADP 10 μmol/L, compound 800 μM, single replicates, 800 µM): 82.2 % of control and 68.9 % of control and 69.6 % of control and 61.7 % of control and 67.2 % of control and 75.0 % of control
Aggregation (%) ([4]; compound 100 μM): 56.0% and 55.8% and 53.6% and 54.0% and 60.0%
Aggregation % of control ([4]; compound 100 μM, 100 µM): 97.5 % of control and 100.8 % of control and 93.6 % of control and 94.3 % of control and 104.8 % of control
Aggregation (%) ([4]; compound 200 μM): 54.6% and 53.1% and 52.4% and 49.6% and 54.8%
Aggregation % of control ([4]; compound 200 μM, 200 µM): 92.8 % of control and 97.1 % of control and 91.5 % of control and 86.6 % of control and 95.7 % of control
Aggregation (%) ([4]; compound 400 μM): 55.9% and 54.0% and 46.2% and 49.8% and 51.2%
Aggregation % of control ([4]; compound 400 μM, 400 µM): 96.9 % of control and 94.3 % of control and 80.7 % of control and 87.0 % of control and 89.4 % of control
Aggregation (%) ([4]; compound 800 μM): 46.8% and 40.4% and 51.9% and 43.4%
Aggregation % of control ([4]; compound 800 μM, 800 µM): 85.1 % of control and 85.9 % of control and 70.6 % of control and 90.7 % of control and 75.8 % of control
activity at 100 µM ([4]; Rattus norvegicus, compound 100 μM, read-out: Aggregation % of control): 97.8%
activity at 200 µM ([4]; Rattus norvegicus, compound 200 μM, read-out: Aggregation % of control): 95.4%
activity at 400 µM ([4]; Rattus norvegicus, compound 400 μM, read-out: Aggregation % of control): 97.6%

O=c1c2nc(Br)n([C@@H]3O[C@@H]4CO[P@@](O)(=S)O[C@H]4[C@H]3O)c2nc2[nH]c(-c3ccccc3)cn12 [Rp-8-Br-PET-cGMPS, Rp-8-Bromo-β-phenyl-1, N2-ethenoguanosine 3´, 5´-cyclic mono-phosphorothioate sodium salt]
platelet aggregation when incubated with naringenin after kinase inhibitor ([2]; inhibitor 30 μmol/L preincubation, ADP 10 μmol/L): did not affect the final extent of platelet aggregation
naringenin-induced phosphorylation of VASP at Ser239 after kinase inhibitor ([1]; inhibitor 30 μmol/L before treatment with naringenin): only small changes
Aggregation (%) ([3]; Rp-8-Br-PET-cGMPS (30 μM)+ADP (10 μM)): 67.3% and 69.8% and 64.5% and 66.3% and 65.0% and 70.4%
